From ChEMBL document CHEMBL1201862, “PubChem BioAssay data set” (2004)
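96-well plates; 48 h exposure; 5 concentrations. Endpoints by linear interpolation between flanking doses. Not reached: highest tested concentration assigned. GI50 = concentration required for 50% inhibition of growth.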 The source made the active and inactive calls. Rule as the data show it: active = GI50 up to about 1.1 µM and inactive = higher.

Tests used:
Test in all cases: inhibition of tumour cell growth, NCI panel, 48 h
ACHN = system: ACHN
COLO 205 = system: COLO 205
HCC 2998 = system: HCC 2998
HCT-116 = system: HCT-116
HCT-15 = system: HCT-15
HOP-92 = system: HOP-92
IGROV-1 = system: IGROV-1
K562 = system: K562
MCF7 = system: MCF7
MOLT-4 = system: MOLT-4
NCI-H226 = system: NCI-H226
NCI-H23 = system: NCI-H23
NCI-H460 = system: NCI-H460
OVCAR-8 = system: OVCAR-8
RPMI-8226 = system: RPMI-8226
RXF 393 = system: RXF 393
SF-295 = system: SF-295
SK-OV-3 = system: SK-OV-3
UO-31 = system: UO-31
MDA-N = system: MDA-N

Row | SMILES | GI50 (ACHN) | GI50 (COLO 205) | GI50 (HCC 2998) | GI50 (HCT-116) | GI50 (HCT-15) | GI50 (HOP-92) | GI50 (IGROV-1) | GI50 (K562) | GI50 (MCF7) | GI50 (MOLT-4) | GI50 (NCI-H226) | GI50 (NCI-H23) | GI50 (NCI-H460) | GI50 (OVCAR-8) | GI50 (RPMI-8226) | GI50 (RXF 393) | GI50 (SF-295) | GI50 (SK-OV-3) | GI50 (UO-31) | GI50 (MDA-N)
1 | COc1ccc2[nH]c(C(O)(Cc3cccnc3)Cc3cccnc3)cc2c1 | > 100 µM (inactive) | > 100 µM (inactive) | > 100 µM (inactive) | > 100 µM (inactive) | > 100 µM | > 100 µM (inactive) | > 100 µM (inactive) | > 100 µM (inactive) | > 100 µM (inactive) | > 100 µM (inactive) | > 100 µM (inactive) | > 100 µM (inactive) | > 100 µM (inactive) | > 100 µM (inactive) | > 100 µM (inactive) | > 100 µM (inactive) | > 100 µM (inactive) | > 100 µM (inactive) | > 100 µM (inactive) | 
2 | COc1ccc(Cc2n[nH]c(Nc3ccc(Br)cc3)nc2=O)cc1OC | > 100 µM (inactive) | > 100 µM (inactive) | > 88.1 µM (inactive) | 64.3 µM (inactive) | > 100 µM | > 100 µM (inactive) | > 100 µM (inactive) | 44.9 µM (inactive) | 44.6 µM (inactive) | 43.1 µM (inactive) | > 100 µM (inactive) | > 100 µM (inactive) | > 100 µM (inactive) | > 100 µM (inactive) | > 100 µM (inactive) | > 100 µM (inactive) | > 100 µM (inactive) | > 100 µM (inactive) | > 76.2 µM (inactive) | 
3 | COP(=O)(OC)C(NC(=O)C(F)(F)F)(c1ccccc1)C(F)(F)F (stereo not drawn) | > 100 µM (inactive) | > 100 µM (inactive) | > 100 µM (inactive) | > 100 µM (inactive) | > 100 µM | > 100 µM (inactive) | > 100 µM (inactive) | > 100 µM (inactive) |  | > 100 µM (inactive) | > 100 µM (inactive) | > 100 µM (inactive) | > 100 µM (inactive) | > 100 µM (inactive) | > 100 µM (inactive) | > 100 µM (inactive) | > 100 µM (inactive) | > 100 µM (inactive) | > 100 µM (inactive) | 
4 | O=C1CCCC2=C1CC1=C(CCCC1=O)N2c1ccccc1C(=O)O | > 100 µM (inactive) |  | > 100 µM (inactive) |  | > 100 µM | > 100 µM (inactive) | > 100 µM (inactive) | > 100 µM (inactive) | > 100 µM (inactive) | > 100 µM (inactive) | > 100 µM (inactive) | > 100 µM (inactive) | > 100 µM (inactive) | > 100 µM (inactive) | > 100 µM (inactive) | > 100 µM (inactive) |  | > 100 µM (inactive) | > 100 µM (inactive) | 
5 | CCOC(=O)/C(C)=C(/O)C(=O)OCC | > 100 µM (inactive) | > 100 µM (inactive) | > 100 µM (inactive) | > 100 µM (inactive) | > 100 µM | > 100 µM (inactive) | > 100 µM (inactive) | > 100 µM (inactive) |  | > 100 µM (inactive) | > 100 µM (inactive) | > 100 µM (inactive) | > 100 µM (inactive) | > 100 µM (inactive) | > 100 µM (inactive) | > 100 µM (inactive) | > 100 µM (inactive) | > 100 µM (inactive) | > 100 µM (inactive) | 
6 | O=[N+]([O-])c1ccc(-c2nnc(C34CC5CC(CC(C5)C3)C4)o2)cc1 | > 100 µM (inactive) | > 100 µM (inactive) | > 100 µM (inactive) | > 100 µM (inactive) | > 100 µM | > 100 µM (inactive) | > 100 µM (inactive) | > 100 µM (inactive) |  | > 100 µM (inactive) | > 100 µM (inactive) | > 100 µM (inactive) | > 100 µM (inactive) |  | > 100 µM (inactive) | > 100 µM (inactive) | > 100 µM (inactive) | > 100 µM (inactive) | > 100 µM (inactive) | > 100 µM (inactive)
